Data from US9682013B2, “Pharmaceutical compositions comprising human antibodies to PCSK9” (SANOFI BIOTECHNOLOGY, priority 2011, dated 2017).

Tests used:
[1] = tested on: patients with Heterozygous Familial Hypercholesterolemia (HeFH) or other forms of primary hypercholesteremia (nonFH); experiment: Study 3: randomized, placebo-controlled, multiple ascending dose trial of 316P in HeFH and nonFH; assay type: in vivo, human; conditions: for mean % reduction in LDL-C on day 57: on top of statins, combined FH and nonFH populations
Description: This is a randomized, double-blind, placebo-controlled, multiple ascending dose, multicenter clinical trial in subjects with primary hypercholesterolemia.
The objective of this study was to determine whether a fully human monoclonal antibody to PCSK9 (316P) is effective and safe as either a primary or adjunctive agent to lower LDL-C in patients with Heterozygous Familial Hypercholesterolemia (HeFH) or other forms of primary hypercholesteremia (nonFH). 61 adults with either documented HeFH (n=21) or nonFH (n=30), on diet plus stable atorvastatin therapy (atorvaRx) or nonFH (n=10) on diet alone enrolled in this clinical trial. Subjects on stable atorvastatin therapy had LDL-C≧2.6 mmol/L and those on diet alone had LDL-C≧3.4 mmol/L. 316P at doses of 50, 100 and 150 mg was administered subcutaneously (sc) at 1, 29 and 43 days. The primary endpoint was the incidence and severity of treatment emergent adverse events (TEAE). The primary efficacy endpoint was percent and absolute change in serum LDL-C from baseline to each visit. Additional endpoints included apolipoprotein (apo) B, total cholesterol, HDL-C, VLDL-C, and the ratio of apoB to apoA1. 109 patients were screened, and 61 patients were randomized (14 placebo, 47 316P) with 100% completing 148+/−7 days of treatment and follow up. Compared to the nonFH cohort, the FH group was younger (mean 40 vs. 52 yrs), had more males (81% vs. 57%) and was on higher doses of atorvastatin (52% on 40 mg vs. 3%). Baseline LDL-C was 3.45, 2.88 and 4.46 mmol/L in the FH, nonFH atorvaRx and nonFH diet only groups, respectively.

[2] = tested on: patients with an elevated LDL-C (≧100 mg/dL or 2.59 mmol/L) treated with a stable dose of atorvastatin 10 mg; experiment: Study 2: randomized, double-blind, placebo-controlled 8-week study of 316P 150 mg E2W with atorvastatin 10 mg or 80 mg; assay type: in vivo, human
Description: This was a randomized, double-blind, 3-parallel-groups, placebo-controlled, fixed dose/dose regimen, multicenter, 8-week study in subjects with primary hypercholesterolemia, aged 18-75 years. One aim of this study was to assess the efficacy and safety of 316P in patients with an elevated LDL-C (≧100 mg/dL or 2.59 mmol/L) treated with a stable dose of atorvastatin 10 mg.
During the screening period, patients had to be stabilized to atorvastatin 10 mg for at least 6 weeks, if they are not already. Then, after 1 additional screening week, patients were centrally randomized via IVRS/IWRS in a 1:1:1 ratio to one of the 3 treatment groups (placebo for 316P+atorvastatin 80 mg, 316P 150 mg E2W+atorvastatin 80 mg, 316P 150 mg E2W+atorvastatin 10 mg) and treated in a double-blind manner for approximately 8 weeks. 316P was administered every 2 weeks on site trough subcutaneous injection and atorvastatin was administered orally once daily in the evening at home. The double-blind treatment period was then followed by an 8-week follow-up period.
Inclusion criteria: • Patients (patients receiving a lipid lowering treatment other than atorvastatin/or not at stable dose of atorvastatin 10 mg for at least 6 weeks prior to screening period, or drug naive patients) with primary hypercholesterolemia likely to have low-density lipoprotein cholesterol (LDL-C)≧100 mg/dL (≧2.59 mmol/L) at the end of the run-in period on atorvastatin therapy (Week-1). • OR • Patients with primary hypercholesterolemia treated with stable dose of atorvastatin 10 mg for at least 6 weeks prior to screening period and likely to have low-density lipoprotein cholesterol (LDL-C)≧100 mg/dL (≧2.59 mmol/L) at the screening visit (Week-1).
Duration of Study Period Per Subject:
• Arm 1: The first group of patients receives one subcutaneous injection of 1 mL of antibody 316P, administered in the abdomen every two weeks, with a dose regimen at 150 mg, for a double-blind treatment period of 8 weeks; • Atorvastatin is administered once per day at a stable dose of 10 mg as background therapy. • Atorvastatin is administered at a dose of 80 mg once during the double-blind treatment period of 8 weeks. • Arm 2: The second group of patients receives one subcutaneous injection of 1 mL of a placebo solution, administered in the abdomen every two weeks, with a dose regimen at 150 mg, for a double-blind treatment period of 8 weeks; • Atorvastatin is administered once per day at a stable dose of 10 mg as background therapy. • Atorvastatin is administered at a dose of 80 mg (2 over-encapsulated atorvastatin 40 mg tablets) once during the double-blind treatment period of 8 weeks. • Arm 3: The third group of patients receives one subcutaneous injection of 1 mL of antibody 316P, administered in the abdomen every two weeks, with a dose regimen at 150 mg, for a double-blind treatment period of 8 weeks; • Atorvastatin is administered once per day at a stable dose of 10 mg as background therapy. • Atorvastatin is administered at a dose of 10 mg (1 over-encapsulated atorvastatin 10 mg tablet+1 matching placebo tablet) once during the double-blind treatment period of 8 weeks. Primary and Key Secondary Endpoints Primary Endpoints
The primary efficacy variable is the percent change in calculated LDL-C from baseline to Week 8, which is defined as: 100×(calculated LDL-C value at Week 8-calculated LDL-C value at baseline)/calculated LDL-C value at baseline.
In case of unavailable calculated LDL-C value at Week 8 as defined above, then the last calculated LDL-C value measured during the efficacy period and before the Week 8 time window was used to impute the missing Week 8 calculated LDL-C value (Last Observation Carried Forward [LOCF] procedure). […]

[3] = 316P 150 mg with atorvastatin, 8 weeks, consistent with LDL-C decrease
[4] = 316P 150 mg+atorvastatin 80 mg vs placebo+atorvastatin 80 mg, p<0.0001

316P: fully human anti-PCSK9 antibody comprising a HCVR as shown in SEQ ID NO: 90 and LCVR as shown in SEQ ID NO: 92 [Antibody 316P]
mean % reduction in LDL-C on day 57 ([1]; 50 mg sc at days 1, 29 and 43): 35.6%
mean % reduction in LDL-C on day 57 ([1]; 100 mg sc at days 1, 29 and 43): 50.2%
mean % reduction in LDL-C on day 57 ([1]; 150 mg sc at days 1, 29 and 43): 57.5%
HDL-C ([1]; 50, 100 and 150 mg sc): Favourable changes
apoA1 ([1]; 50, 100 and 150 mg sc): Favourable changes
liver function testing or other laboratory parameters ([1]; 50, 100 and 150 mg sc): No drug-related adverse effects
serious adverse events ([1]; 50, 100 and 150 mg sc): No serious adverse events
tolerability ([1]; 50, 100 and 150 mg sc): generally well-tolerated
response between FH and nonFH or those on or not on statin therapy ([1]; no statistical analysis performed): did not appear to be differences in response
safety signal ([2]; 150 mg E2W, 8 weeks): No particular safety signal was noted
tolerability ([2]; 150 mg E2W, 8 weeks of treatment, all treatment groups): well tolerated
HDL-C ([2]; 316P 150 mg co-administered with atorvastatin 10 mg or 80 mg): trend of increase
HDL-C percent change from baseline, LS mean ([2]; 316P 150 mg co-administered with atorvastatin 10 mg, 8 weeks): +2.6%
HDL-C percent change from baseline, LS mean ([2]; 316P 150 mg co-administered with atorvastatin 80 mg, 8 weeks): +5.8%
Apo-B/ApoA-1 ratio [2, 3]: Consistent results
ApoB [2, 3]: Consistent results
Total-C [2, 3]: Consistent results
non HDL-C [2, 3]: Consistent results
median reduction from baseline in LDL-C at 8 weeks ([2]; 316P 150 mg+atorvastatin 10 mg group): −70.4%
median reduction from baseline in LDL-C at 8 weeks ([2]; 316P 150 mg+atorvastatin 80 mg group): −70.6%
LS mean difference in percent change from baseline in LDL-C at 8 weeks [2, 4]: −55.8%
effect size estimate, rank-based analysis of covariance, percent change in LDL-C at 8 weeks [2, 4]: −54.5%
troponin levels ([2]; all treatment groups): no change
